ChEMBL document CHEMBL5506000, “Design, synthesis and antibacterial evaluation of low toxicity amphiphilic-cephalosporin derivatives” (Eur J Med Chem, 2024)
Values after ≈ are worked out from the molar mass of the structure shown. Active and inactive are the calls of the source. The calls are words filed in the database; no cut-off is given here.

Assays:
Enterococcus faecalis = experiment: Antibacterial activity against Enterococcus faecalis ATCC 29212 by CLSI protocol based assay; assay type: functional
Staphylococcus aureus [1] = experiment: Antibacterial activity against Staphylococcus aureus ATCC 29213 by CLSI protocol based assay; assay type: functional
[2] = tested on: Stenotrophomonas maltophilia; experiment: Antibacterial activity against Stenotrophomonas maltophilia ATCC 17808 by CLSI protocol based assay; assay type: functional
Escherichia coli = experiment: Antibacterial activity against Escherichia coli ATCC 25922 by CLSI protocol based assay; assay type: functional
[3] = Hemolytic activity in sheep RBC; assay type: toxicity, cell-based, Ovis aries, Erythrocyte; conditions: sheep red blood cells (erythrocytes)
Cell membrane [4] = experiment: Induction of cell membrane depolarization in Staphylococcus aureus assessed as increase in fluorescence intensity at 16 microg/ml by DiSC3(5) dye based assay; assay type: cell membranes; conditions: dose 16.0 µg/ml
Cell membrane [5] = experiment: Induction of inner membrane permeabilization in Staphylococcus aureus assessed as increase in fluorescence intensity at 16 microg/ml by PI staining based analysis; assay type: cell membranes; conditions: dose 16.0 µg/ml
Cell membrane [6] = experiment: Induction of cell membrane damage in Staphylococcus aureus assessed as increase in protein leakage; assay type: cell membranes
Staphylococcus aureus [7] = experiment: Antibacterial activity against Staphylococcus aureus assessed as reduction in metabolic activity at sub-MIC; assay type: functional, organism-based
Staphylococcus aureus [8] = experiment: Antibacterial activity against Staphylococcus aureus assessed as inhibition of metabolic activity at MIC; assay type: functional
Staphylococcus aureus [9] = experiment: Antibacterial activity against methicillin resistant Staphylococcus aureus; assay type: functional
[10] = Hemolytic activity in sheep RBC assessed as hemolysis rate at 1280 microg/ml relative to control; assay type: toxicity, cell-based, Ovis aries, Erythrocyte; conditions: sheep red blood cells (erythrocytes), dose 1280 µg/ml, read-out: Activity
Staphylococcus aureus [11] = experiment: Drug resistance, ratio of MIC for Staphylococcus aureus measured after 7 days to MIC for Staphylococcus aureus; assay type: functional
Staphylococcus aureus [12] = experiment: Drug resistance, ratio of MIC for Staphylococcus aureus measured after 20 days to MIC for Staphylococcus aureus; assay type: functional
Staphylococcus aureus [13] = experiment: Antibacterial activity against Staphylococcus aureus measured after 20 days; assay type: functional; conditions: 480 h, time 20 day
Staphylococcus aureus [14] = experiment: Resistance development in 20 day passaged Staphylococcus aureus assessed as beta-lactam antibacterial activity; assay type: functional, organism-based
Staphylococcus aureus [15] = experiment: Resistance development in 20 day passaged Staphylococcus aureus assessed as cefotaxime antibacterial activity; assay type: functional, organism-based
Staphylococcus aureus [16] = experiment: Resistance development in 20 day passaged Staphylococcus aureus assessed as ampicillin antibacterial activity; assay type: functional, organism-based
Staphylococcus aureus [17] = experiment: Resistance development in 20 day passaged Staphylococcus aureus assessed as ciprofloxacin antibacterial activity; assay type: functional, organism-based
Staphylococcus aureus [18] = experiment: Resistance development in 20 day passaged Staphylococcus aureus assessed as levofloxacin antibacterial activity; assay type: functional, organism-based
Staphylococcus aureus [19] = experiment: Antibacterial activity against early exponential growth phase Staphylococcus aureus assessed as reduction in bacterial colony at 8 times of MIC measured at 8 to 24 hrs by time-kill kinetics assay; assay type: functional, organism-based; conditions: time 8-24 hrs
Staphylococcus aureus [20] = experiment: Post-antibiotic effect against Staphylococcus aureus at 1 times of MIC incubated for 1 hrs; assay type: functional
Staphylococcus aureus [21] = experiment: Post-antibiotic effect against Staphylococcus aureus at 4 times of MIC incubated for 1 hrs; assay type: functional
Staphylococcus aureus [22] = experiment: Antibacterial activity against Staphylococcus aureus measured after 3 to 6 hrs in presence of 50% plasma; assay type: functional, organism-based; conditions: time 3-6 hrs
Staphylococcus aureus [23] = experiment: Antibacterial activity against methicillin resistant Staphylococcus aureus clinical isolates assessed as 50% inhibition of bacterial growth; assay type: functional

| Molecule | MIC (Enterococcus faecalis) [µg/mL] | MIC (Staphylococcus aureus [1]) [µg/mL] | MIC [2] [µg/mL] | MIC (Escherichia coli) [µg/mL] | HC50 [3] [µg/mL] | also measured |
| --- | --- | --- | --- | --- | --- | --- |
| CCCCCCNC(=O)c1cc[n+](CC2=C(C(=O)[O-])N3C(=O)[C@@H](NC(=O)/C(=N\OC)c4csc(N)n4)[C@H]3SC2)cc1.O=C(O)C(F)(F)F | 4 | 2 | 2 | 2 | > 1280 | – |
| CC[C@H](C)[C@H](NC(=O)CN)C(=O)NCC(=O)N[C@@H](C)C(=O)N[C@H](C(=O)N[C@@H](CC(C)C)C(=O)N[C@@H](CCCCN)C(=O)N[C@H](C(=O)N[C@@H](CC(C)C)C(=O)N[C@H](C(=O)N[C@H](C(=O)NCC(=O)N[C@@H](CC(C)C)C(=O)N1CCC[C@H]1C(=O)N[C@@H](C)C(=O)N[C@@H](CC(C)C)C(=O)N[C@H](C(=O)N[C@@H](CO)C(=O)N[C@@H](Cc1c[nH]c2ccccc12)C(=O)N[C@H](C(=O)N[C@@H](CCCCN)C(=O)N[C@@H](CCCNC(=N)N)C(=O)N[C@@H](CCCCN)C(=O)N[C@@H](CCCNC(=N)N)C(=O)N[C@@H](CCC(N)=O)C(=O)N[C@@H](CCC(N)=O)C(N)=O)[C@@H](C)CC)[C@@H](C)CC)[C@@H](C)O)[C@@H](C)O)C(C)C)C(C)C [MELITTIN] | 2 (≈ 0.703 µM) | – | 8 (≈ 2.81 µM) | – | – | Activity (Cell membrane [4]): Active; Activity (Cell membrane [5]): Active; Activity (Cell membrane [6]): Active; Activity (Staphylococcus aureus [7]): Active; inhibition (INH) (Staphylococcus aureus [8]): ~100% |
| CCCCNC(=O)c1ccc[n+](CC2=C(C(=O)[O-])N3C(=O)[C@@H](NC(=O)/C(=N\OC(C)(C)C(=O)O)c4csc(N)n4)[C@H]3SC2)c1.O=C(O)C(F)(F)F | 128 | 32 | 0.5 | 1 | > 1280 | – |
| CCCCCCN(Cc1ccc(-c2ccc(CN(CCCCCC)C(=O)[C@@H](N)CCCCN)cc2)cc1)C(=O)[C@@H](N)CCCCN.O=C(O)C(F)(F)F.O=C(O)C(F)(F)F.O=C(O)C(F)(F)F.O=C(O)C(F)(F)F | – | – | – | – | – | MIC (Staphylococcus aureus [9]): 3.1 µg/mL |
| CCCCCCCCCCNC(=O)c1ccc[n+](CC2=C(C(=O)[O-])N3C(=O)[C@@H](NC(=O)/C(=N\OC(C)(C)C(=O)O)c4csc(N)n4)[C@H]3SC2)c1.O=C(O)C(F)(F)F | 128 | 32 | 64 | 32 | > 1280 | – |
| CCCCCCCCCCNC(=O)c1ccc[n+](CC2=C(C(=O)[O-])N3C(=O)[C@@H](NC(=O)/C(=N\OC)c4csc(N)n4)[C@H]3SC2)c1.O=C(O)C(F)(F)F | 4 | 0.5 | 8 | 8 | > 1280 | hemolysis at 1280 microg/ml [10]: 12.7% |
| CCn1cc(C(=O)O)c(=O)c2cc(F)c(N3CCNCC3)cc21 [NORFLOXACIN] | – | – | – | – | – | Ratio (Staphylococcus aureus [11]): 16; Ratio (Staphylococcus aureus [12]): 64; MIC (Staphylococcus aureus [13]): 64 µg/mL (≈ 200 µM); Activity (Staphylococcus aureus [14]): inactive; Activity (Staphylococcus aureus [15]): inactive; Activity (Staphylococcus aureus [16]): inactive; Activity (Staphylococcus aureus [17]): inactive; Activity (Staphylococcus aureus [18]): inactive |
| CO/N=C(\C(=O)N[C@@H]1C(=O)N2C(C(=O)[O-])=C(COC(C)=O)CS[C@H]12)c1csc(N)n1.[Na+] [CEFOTAXIME SODIUM] | 16 | 1 | 2 | 2 | > 1280 | Activity (Staphylococcus aureus [7]): Active; inhibition (INH) (Staphylococcus aureus [8]): ~100% |
| CCCCNC(=O)c1cc[n+](CC2=C(C(=O)[O-])N3C(=O)[C@@H](NC(=O)/C(=N\OC(C)(C)C(=O)O)c4csc(N)n4)[C@H]3SC2)cc1.O=C(O)C(F)(F)F | 128 | 64 | 1 | 4 | > 1280 | – |
| CCCCCCCCNC(=O)c1ccc[n+](CC2=C(C(=O)[O-])N3C(=O)[C@@H](NC(=O)/C(=N\OC(C)(C)C(=O)O)c4csc(N)n4)[C@H]3SC2)c1.O=C(O)C(F)(F)F | 128 | 32 | 16 | 16 | > 1280 | – |
| CCCCNC(=O)c1cc[n+](CC2=C(C(=O)[O-])N3C(=O)[C@@H](NC(=O)/C(=N\OC)c4csc(N)n4)[C@H]3SC2)cc1.O=C(O)C(F)(F)F | 4 | 4 | 1 | 1 | > 1280 | – |
| CCCCCCCCNC(=O)c1cc[n+](CC2=C(C(=O)O)N3C(=O)[C@@H](NC(=O)/C(=N\OC)c4csc(N)n4)[C@H]3SC2)cc1.O=C([O-])C(F)(F)F | 2 | 1 | 4 | 8 | > 1280 | – |
| CC(C)(O/N=C(\C(=O)N[C@@H]1C(=O)N2C(C(=O)[O-])=C(C[n+]3ccccc3)CS[C@H]12)c1csc(N)n1)C(=O)O [CEFTAZIDIME] | 128 (≈ 234 µM) | 16 (≈ 29.3 µM) | 0.063 (≈ 0.115 µM) | 0.063 (≈ 0.115 µM) | > 1280 | – |
| CCCCCCNC(=O)c1cc[n+](CC2=C(C(=O)[O-])N3C(=O)[C@@H](NC(=O)/C(=N\OC(C)(C)C(=O)O)c4csc(N)n4)[C@H]3SC2)cc1.O=C(O)C(F)(F)F | 64 | 32 | 8 | 32 | > 1280 | – |
| C[C@@H](O)[C@H]1C(=O)N2C(C(=O)O)=C(S[C@@H]3CN[C@H](C(=O)N(C)C)C3)[C@H](C)[C@H]12 [MEROPENEM] | – | – | 0.031 (≈ 0.0808 µM) | 0.031 (≈ 0.0808 µM) | > 1280 | – |
| CCCCCCCCCCNC(=O)c1cc[n+](CC2=C(C(=O)[O-])N3C(=O)[C@@H](NC(=O)/C(=N\OC(C)(C)C(=O)O)c4csc(N)n4)[C@H]3SC2)cc1.O=C(O)C(F)(F)F | > 128 | 32 | 128 | 64 | > 1280 | – |
| GENTAMICIN | – | – | – | – | – | Activity (Cell membrane [4]): inactive; Activity (Cell membrane [5]): inactive |
| CCCCCCNC(=O)c1ccc[n+](CC2=C(C(=O)[O-])N3C(=O)[C@@H](NC(=O)/C(=N\OC(C)(C)C(=O)O)c4csc(N)n4)[C@H]3SC2)c1.O=C(O)C(F)(F)F | 128 | 32 | 4 | 4 | > 1280 | – |
| CCCCCCNC(=O)c1ccc[n+](CC2=C(C(=O)[O-])N3C(=O)[C@@H](NC(=O)/C(=N\OC)c4csc(N)n4)[C@H]3SC2)c1.O=C(O)C(F)(F)F | 4 | 2 | 2 | 4 | > 1280 | – |
| CCCCCCCCCCNC(=O)c1cc[n+](CC2=C(C(=O)[O-])N3C(=O)[C@@H](NC(=O)/C(=N\OC)c4csc(N)n4)[C@H]3SC2)cc1.O=C(O)C(F)(F)F | 4 | 1 | 8 | 8 | > 1280 | – |
| CN[C@H](CC(C)C)C(=O)N[C@H]1C(=O)N[C@@H](CC(N)=O)C(=O)N[C@H]2C(=O)N[C@H]3C(=O)N[C@H](C(=O)N[C@H](C(=O)O)c4cc(O)cc(O)c4-c4cc3ccc4O)[C@H](O)c3ccc(c(Cl)c3)Oc3cc2cc(c3O[C@@H]2O[C@H](CO)[C@@H](O)[C@H](O)[C@H]2O[C@H]2C[C@](C)(N)[C@H](O)[C@H](C)O2)Oc2ccc(cc2Cl)[C@H]1O [VANCOMYCIN] | 2 (≈ 1.38 µM) | – | – | – | > 1280 | Activity (Staphylococcus aureus [19]): Active; PAE (Staphylococcus aureus [20]): 0.67 h; PAE (Staphylococcus aureus [21]): 1.37 h; Activity (Staphylococcus aureus [22]): Active; Activity (Cell membrane [4]): inactive |
| CCCCCCCCNC(=O)c1cc[n+](CC2=C(C(=O)[O-])N3C(=O)[C@@H](NC(=O)/C(=N\OC(C)(C)C(=O)O)c4csc(N)n4)[C@H]3SC2)cc1.O=C(O)C(F)(F)F | > 128 | 32 | 64 | 32 | > 1280 | – |
| CC[C@H]1OC(=O)[C@H](C)[C@@H](O[C@H]2C[C@@](C)(OC)[C@@H](O)[C@H](C)O2)[C@H](C)[C@@H](O[C@@H]2O[C@H](C)C[C@H](N(C)C)[C@H]2O)[C@](C)(O)C[C@@H](C)C(=O)[C@H](C)[C@@H](O)[C@]1(C)O [ERYTHROMYCIN] | – | – | – | – | – | MIC50 (Staphylococcus aureus [23]): > 128 µg/mL |
| CCCCNC(=O)c1ccc[n+](CC2=C(C(=O)[O-])N3C(=O)[C@@H](NC(=O)/C(=N\OC)c4csc(N)n4)[C@H]3SC2)c1.O=C(O)C(F)(F)F | 4 | 2 | 0.5 | 0.5 | > 1280 | – |
